The values that follow come from article PMC10344891, “Continuous enzyme activity assay for high-throughput classification of histone deacetylase 8 inhibitors” (Exploration of Targeted Anti-tumor Therapy, 2023).

For assay [1], the target named is T1, human KDAC8 (Homo sapiens, UniProt Q9BY41).
T1 sequence (Q9BY41 1-377): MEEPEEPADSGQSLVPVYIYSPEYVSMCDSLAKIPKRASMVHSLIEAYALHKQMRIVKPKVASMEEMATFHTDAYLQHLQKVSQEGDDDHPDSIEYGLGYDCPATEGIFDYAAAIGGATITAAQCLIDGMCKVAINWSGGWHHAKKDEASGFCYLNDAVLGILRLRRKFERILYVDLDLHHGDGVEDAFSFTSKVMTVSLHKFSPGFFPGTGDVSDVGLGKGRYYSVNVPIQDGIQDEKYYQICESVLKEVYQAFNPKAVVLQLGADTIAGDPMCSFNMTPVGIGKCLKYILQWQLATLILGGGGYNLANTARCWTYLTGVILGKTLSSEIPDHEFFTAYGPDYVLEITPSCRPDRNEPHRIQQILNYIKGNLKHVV
The assay is described as follows: Michaelis-Menten kinetics with the continuous KDAC8 assay. The arrangement: full-length human KDAC8 was produced in E. coli BL21 (DE3); His6-SUMO (N, cleaved yes); made in house; host or cells: E. coli BL21 (DE3), pET14b vector. To be noted: n = 3. The class given is biochemical. The procedure:
The measurements were carried out in a black 96-well microtiter plate (Greiner) at 30°C in assay buffer (see above). A serial two-fold dilution ranging from 50 µmol/L substrate, Boc-Lys(TFA)-AMC (Bachem), to 780 nmol/L, was prepared in an assay buffer containing 0.1 mg/mL trypsin. The enzymatic reaction was initiated by the addition of 10 nmol/L KDAC8. […] The data points were plotted against time and blank corrected. For the determination of Michaelis-Menten parameters, a linear regression analysis of the initial slope (vi) of each curve was performed. Slopes were transformed into rates of AMC product formation using a calibration curve with different AMC concentrations. The obtained enzyme conversion rates were plotted against the respective substrate concentration and fitted to the Michaelis-Menten function using GraphPad Prism software. The turnover number (kcat) was calculated as
where vi is the substrate conversion rate and E is the enzyme concentration. All solutions were pre-incubated at 30°C.

Assay [2] deals with T1, human KDAC8. Briefly: Thermal shift assay (SYPRO orange melting curves). The class given is binding. More on the design: full-length human KDAC8 was produced in E. coli BL21 (DE3); His6-SUMO (N, cleaved yes); made in house; host or cells: E. coli BL21 (DE3), pET14b vector. To be noted: for ΔTm at 100 µM: read-out: ΔTm (thermal stabilization of KDAC8). The procedure:
By utilizing a QuantStudio™ 5 real-time quantitative polymerase chain reaction (qPCR) system (Thermo Fisher Scientific), protein melting curves with SYPRO® orange as fluorescence dye were generated. […] A DMSO control without ligand was utilized as a positive control. After mixing the components, the samples were incubated at 30°C for 1 h in the real-time qPCR system to assure binding equilibrium. […] The fluorescence signal was plotted against the temperature. The melting point was calculated as the point of inflection of the first derivative using protein thermal shift software (Thermo Fisher Scientific).

Assay [3] has as its target T1, human KDAC8. The assay is described as follows: Continuous (one-step) KDAC8 enzyme activity assay, IC50 determination. The class given is biochemical. More on the design: full-length human KDAC8 was produced in E. coli BL21 (DE3); His6-SUMO (N, cleaved yes); made in house; host or cells: E. coli BL21 (DE3), pET14b vector. As to conditions: for Inhibition mode: classification of mode of action on KDAC8; for IC50: 10 nmol/L KDAC8, 60 min pre-incubation at 30°C, 20 µmol/L Boc-Lys(TFA)-AMC, 0.1 mg/mL trypsin, mean ± SD, n = 3; for Time-dependence of IC50 values: pre-incubation times 5 min to 60 min, 100 nmol/L KDAC8.

Assay [4] deals with trypsin. The assay is described as follows: Trypsin inhibition counter-assay (Bz-Arg-PNA). The format is biochemical. As to conditions: 0.1 mg/mL trypsin, 400 µmol/L Bz-Arg-PNA, any applied concentration. The procedure: where EA stands for the enzyme activity at a given ligand concentration x, Emax and E0 are the enzyme activities without ligand and under complete inhibition, respectively. IC50 is the ligand concentration at which half of the enzyme activity is inhibited and h is a measure of the steepness of the dose-response curve. […] All solutions were pre-incubated at 30°C. The two-step IC50 determination has been described previously. In short: KDAC8 was incubated with the respective ligands, and the enzymatic reaction was started by the addition of 20 µmol/L Boc-Lys(TFA)-AMC substrate (Bachem). […]. In this endpoint assay, the fluorescence signal was correlated to […] and normalized with a positive control without ligand. Data analysis was performed as described above. For IC50 determination due to trypsin inhibition, the basic IC50 procedure was identical. In the assay 0.1 mg/mL trypsin and 400 µmol/L Bz-Arg-PNA (Bachem) were used. The change in substrate absorbance was recorded in a microplate reader (Spark®, Tecan) at 405 nm. In this endpoint assay, the absorbance signal was correlated to […] and normalized with a positive control without ligand. Data analysis was performed as described above.

Assay [5] deals with T1, human KDAC8. Briefly: Progress curves of continuous KDAC8 assay: relative KDAC8 activity after 5,000 s (stabilization curves). To be noted: ratio of late-stage to early-stage slopes, normalized to free KDAC8.
Protocol: The measurements were carried out in a black 96-well half-area microtiter plate (Greiner) at 30°C in assay buffer (see above). The respective ligand was diluted in Master Mix (see above) and binding kinetics were initiated by the addition of 10 nmol/L KDAC8. […] All solutions were pre-incubated at 30°C. Slopes were calculated for the early-stage (1,000 s to 2,000 s) and the late-stage (5,000 s to 6,000 s) using linear regression. The relative KDAC8 activity in the presence of different inhibitor concentrations was calculated as the ratio of the late-stage and early-stage slopes and normalized to free KDAC8 enzyme.
In assay [6] the target is T1, human KDAC8. Briefly: Two-step endpoint KDAC8 activity assay, IC50 determination. The class given is biochemical. The arrangement: full-length human KDAC8 was produced in E. coli BL21 (DE3); His6-SUMO (N, cleaved yes); made in house; host or cells: E. coli BL21 (DE3), pET14b vector. To be noted: 20 µmol/L Boc-Lys(TFA)-AMC, stopped with SATFMK, trypsin development, n = 3.

For assay [7], the system named is KDAC11. As to conditions: cited from earlier work.
[8] abbreviates: 100 µmol/L inhibitor, 12 µmol/L KDAC8, 1 h at 30°C before melting.

Structures can show the parent of a compound that is named as a salt. Where two headings read alike, the source gives them in different places.

What is called Km is the concentration of substrate that gives half-maximal velocity. What is called kcat is the maximal rate divided by the concentration of active sites. As for `Cc1cc(=O)oc2cc(NC(=O)[C@H](CCCCNC(=O)C(F)(F)F)NC(=O)OC(C)(C)C)ccc12` [Boc-Lys(TFA)-AMC, tert-butyl N-[(1S)-1-[(4-methyl-2-oxo-chromen-7-yl)carbamoyl]-5-[(2,2,2-trifluoroacetyl)amino]pentyl]carbamate], the Km in assay [1] (assay buffer (low salt), 10 nmol/L KDAC8, 30°C) came to 8.9 ± 1.6 µM. The kcat in assay [1] (assay buffer) is 0.034 ± 0.002 s⁻¹.

In general, ΔTm refers to the change in melting temperature against a reference sample. Turning to `CC(/C=C/C(=O)NO)=C\[C@H](C)C(=O)c1ccc(N(C)C)cc1` [TSA, trichostatin A], the thermal shift (ΔTm) at 100 µM in assay [2] is 11.96 ± 0.06 °C. Besides, in assay [3], the Inhibition mode result was “Fast reversible binding”.

The term IC50 denotes the concentration at which inhibition is half-maximal. Consider `CCN1C(=O)C=CC1=O` [NEM, N-ethylmaleimide], for which, in assay [2] (setting [8]), the “ΔTm (thermal stabilization of KDAC8)” value turned out to be 4.58 ± 0.26 °C and the ΔTm at 100 µM is 4 to 5 °C. In assay [4], the “Effect on trypsin activity” value is “no effect against trypsin”. Further, the “Stabilization of KDAC8 activity (relative KDAC8 activity after 5,000 s vs free enzyme)” value in assay [5] is recorded as “do not preserve the relative KDAC8 activity”. Further, in assay [3], the IC50 amounted to 0.32 ± 0.09 µM, the Inhibition mode entry is “Covalent inactivation” and the “Time-dependence of IC50 values” is recorded as “significant changes in IC50-values over time”. In assay [6], 0.78 ± 0.18 µM corresponded to half-maximal inhibition (IC50).

With `O=C(CCCCCCC(=O)Nc1ccccc1)NO` [SAHA, suberoylanilide hydroxamic acid], the ΔTm at 100 µM in assay [2] was 8.5 ± 0.06 °C. Moreover, the “Stabilization of KDAC11” value in assay [7] was “capable of stabilizing KDAC11”. Besides, in assay [3], the Inhibition mode entry is listed as “Fast reversible binding” and the “Time-dependence of IC50 values” is on record as “no time-dependent change in IC50-values”. Moreover, the “Time to establish binding equilibrium with KDAC8” value in assay [3] (deduced from unchanged IC50 at shortest pre-incubation time) is “less than 5 min”.

As to `O=[N+]([O-])c1ccc(CCS(=O)(=O)c2nc(Cl)ns2)cc1` [TJ-19-29, 3-chloro-5-[2-(4-nitrophenyl)ethanesulfonyl]-1,2,4-thiadiazole], in assay [2] (setting [8]), the “ΔTm (thermal stabilization of KDAC8)” value turned out to be 4.4 ± 0.3 °C and the ΔTm at 100 µM was in the range of 4 to 5 °C. Besides, the “Effect on trypsin activity” value in assay [4] is reported as “no effect against trypsin”. Also, the “Stabilization of KDAC8 activity (relative KDAC8 activity after 5,000 s vs free enzyme)” value in assay [5] is on record as “do not preserve the relative KDAC8 activity”. Moreover, in assay [3], the IC50 was 0.03 ± 0.009 µM and the Inhibition mode entry is recorded as “Covalent inactivation”. The midpoint of inhibition in assay [6], the IC50, lay at 0.12 ± 0.04 µM.
